Reference: ChEMBL document CHEMBL4028814, “Thiazolidine derivatives as potent and selective inhibitors of the PIM kinase family” (Bioorg Med Chem, 2017)

How the values were obtained:
[1] = molecular target: Epidermal growth factor receptor (Homo sapiens) (UniProt P00533); assay: Inhibition of partial length wild type human EGFR (R669 to V1011 residues) expressed in bacterial expression system assessed as residual activity at 10 uM by KINOMEscan assay relative to control
[2] = molecular target: T1, Serine/threonine-protein kinase Chk1 (Homo sapiens) (UniProt O14757); assay: Inhibition of partial length wild type human CHK1 (M1 to G289 residues) expressed in bacterial expression system assessed as residual activity at 10 uM by KINOMEscan assay relative to control
T1 sequence (whole entry): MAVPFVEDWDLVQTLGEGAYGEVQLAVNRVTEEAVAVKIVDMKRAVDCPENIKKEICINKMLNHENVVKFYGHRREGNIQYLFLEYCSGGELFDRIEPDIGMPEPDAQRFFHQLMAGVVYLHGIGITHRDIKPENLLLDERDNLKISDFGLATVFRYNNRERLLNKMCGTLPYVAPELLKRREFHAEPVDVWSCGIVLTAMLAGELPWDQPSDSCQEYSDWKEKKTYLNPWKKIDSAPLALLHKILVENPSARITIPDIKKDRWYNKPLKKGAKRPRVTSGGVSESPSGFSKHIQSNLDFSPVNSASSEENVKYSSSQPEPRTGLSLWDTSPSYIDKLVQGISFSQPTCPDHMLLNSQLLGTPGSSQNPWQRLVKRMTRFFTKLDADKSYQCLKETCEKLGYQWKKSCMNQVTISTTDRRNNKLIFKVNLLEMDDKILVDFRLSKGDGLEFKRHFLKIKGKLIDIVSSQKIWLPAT

[3] = molecular target: RAC-alpha serine/threonine-protein kinase (Homo sapiens) (UniProt P31749); assay: Inhibition of partial length wild type human PKBalpha expressed in bacterial expression system assessed as residual activity at 10 uM by KINOMEscan assay relative to control
[4] = molecular target: Death-associated protein kinase 1 (Homo sapiens) (UniProt P53355); assay: Inhibition of partial length wild type human DAPK1 (M1 to F296 residues) expressed in bacterial expression system assessed as residual activity at 10 uM by KINOMEscan assay relative to control
Death-associated protein kinase 1 (Homo sapiens), sequence (P53355 whole entry, looked up, the tested form may be a part): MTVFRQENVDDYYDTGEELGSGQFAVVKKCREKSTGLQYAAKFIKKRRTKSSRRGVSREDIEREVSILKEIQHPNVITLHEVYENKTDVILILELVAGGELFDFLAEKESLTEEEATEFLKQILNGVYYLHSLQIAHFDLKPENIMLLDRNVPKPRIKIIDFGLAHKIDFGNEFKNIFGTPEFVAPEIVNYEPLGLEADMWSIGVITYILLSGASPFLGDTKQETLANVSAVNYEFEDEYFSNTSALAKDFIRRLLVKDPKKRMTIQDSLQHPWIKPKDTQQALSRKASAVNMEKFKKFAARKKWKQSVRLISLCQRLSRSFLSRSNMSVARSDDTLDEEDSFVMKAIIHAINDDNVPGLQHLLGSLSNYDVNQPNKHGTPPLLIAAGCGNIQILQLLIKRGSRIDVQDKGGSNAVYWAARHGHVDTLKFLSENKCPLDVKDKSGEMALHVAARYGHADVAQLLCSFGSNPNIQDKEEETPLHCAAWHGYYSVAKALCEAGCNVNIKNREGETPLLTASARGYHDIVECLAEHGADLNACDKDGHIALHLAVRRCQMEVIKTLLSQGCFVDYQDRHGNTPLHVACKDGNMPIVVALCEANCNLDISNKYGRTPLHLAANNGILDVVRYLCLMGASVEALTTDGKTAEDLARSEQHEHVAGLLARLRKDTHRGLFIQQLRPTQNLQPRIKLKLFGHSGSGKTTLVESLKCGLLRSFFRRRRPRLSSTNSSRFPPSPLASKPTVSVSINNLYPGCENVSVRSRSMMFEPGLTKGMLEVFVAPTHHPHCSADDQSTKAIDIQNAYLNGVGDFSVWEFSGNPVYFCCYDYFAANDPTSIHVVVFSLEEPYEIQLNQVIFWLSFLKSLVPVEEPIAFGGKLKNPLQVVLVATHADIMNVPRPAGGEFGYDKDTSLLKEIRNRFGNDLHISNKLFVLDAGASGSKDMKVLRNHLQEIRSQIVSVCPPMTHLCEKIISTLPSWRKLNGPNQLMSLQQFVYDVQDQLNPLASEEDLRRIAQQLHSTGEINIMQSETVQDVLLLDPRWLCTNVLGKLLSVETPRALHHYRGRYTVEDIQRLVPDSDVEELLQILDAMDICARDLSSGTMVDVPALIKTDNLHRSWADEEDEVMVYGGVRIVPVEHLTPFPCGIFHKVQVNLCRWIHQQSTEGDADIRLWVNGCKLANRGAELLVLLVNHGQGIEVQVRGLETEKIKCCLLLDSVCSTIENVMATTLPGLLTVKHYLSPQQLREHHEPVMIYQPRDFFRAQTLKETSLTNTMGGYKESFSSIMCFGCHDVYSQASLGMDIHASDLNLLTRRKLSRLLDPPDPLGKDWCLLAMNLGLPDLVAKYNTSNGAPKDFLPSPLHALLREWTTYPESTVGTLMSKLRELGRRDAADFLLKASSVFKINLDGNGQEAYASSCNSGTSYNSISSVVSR

Epidermal growth factor receptor (Homo sapiens), sequence (P00533 whole entry, the tested form may be a part): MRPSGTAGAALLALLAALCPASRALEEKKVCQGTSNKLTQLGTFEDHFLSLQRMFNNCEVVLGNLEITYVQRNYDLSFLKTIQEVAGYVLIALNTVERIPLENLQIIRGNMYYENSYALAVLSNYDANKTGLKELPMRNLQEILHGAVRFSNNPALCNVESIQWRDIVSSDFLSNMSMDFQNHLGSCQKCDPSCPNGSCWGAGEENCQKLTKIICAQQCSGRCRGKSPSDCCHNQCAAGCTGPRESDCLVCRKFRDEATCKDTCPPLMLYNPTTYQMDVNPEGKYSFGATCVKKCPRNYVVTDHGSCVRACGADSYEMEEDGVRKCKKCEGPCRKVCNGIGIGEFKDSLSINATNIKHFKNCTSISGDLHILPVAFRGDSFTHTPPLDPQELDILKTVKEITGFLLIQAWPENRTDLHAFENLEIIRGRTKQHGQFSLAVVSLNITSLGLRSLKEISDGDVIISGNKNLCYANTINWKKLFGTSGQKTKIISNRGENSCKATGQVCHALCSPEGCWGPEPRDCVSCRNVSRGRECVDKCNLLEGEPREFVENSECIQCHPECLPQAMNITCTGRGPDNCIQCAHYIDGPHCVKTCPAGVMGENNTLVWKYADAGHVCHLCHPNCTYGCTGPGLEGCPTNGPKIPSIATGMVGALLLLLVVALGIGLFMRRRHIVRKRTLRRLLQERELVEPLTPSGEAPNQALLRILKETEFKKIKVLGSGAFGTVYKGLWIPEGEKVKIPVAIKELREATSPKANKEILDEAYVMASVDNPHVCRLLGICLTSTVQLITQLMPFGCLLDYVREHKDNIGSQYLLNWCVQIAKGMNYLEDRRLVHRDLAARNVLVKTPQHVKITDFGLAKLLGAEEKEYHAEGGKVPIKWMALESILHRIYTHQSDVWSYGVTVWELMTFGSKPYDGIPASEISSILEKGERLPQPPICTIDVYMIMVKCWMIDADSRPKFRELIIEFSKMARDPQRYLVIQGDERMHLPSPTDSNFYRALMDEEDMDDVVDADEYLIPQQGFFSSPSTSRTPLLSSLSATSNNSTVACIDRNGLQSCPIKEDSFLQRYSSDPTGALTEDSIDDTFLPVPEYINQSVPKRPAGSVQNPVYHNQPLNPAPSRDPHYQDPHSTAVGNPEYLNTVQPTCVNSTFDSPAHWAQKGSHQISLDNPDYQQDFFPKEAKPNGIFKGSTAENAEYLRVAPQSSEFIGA
RAC-alpha serine/threonine-protein kinase (Homo sapiens), sequence (P31749 whole entry, the tested form may be a part): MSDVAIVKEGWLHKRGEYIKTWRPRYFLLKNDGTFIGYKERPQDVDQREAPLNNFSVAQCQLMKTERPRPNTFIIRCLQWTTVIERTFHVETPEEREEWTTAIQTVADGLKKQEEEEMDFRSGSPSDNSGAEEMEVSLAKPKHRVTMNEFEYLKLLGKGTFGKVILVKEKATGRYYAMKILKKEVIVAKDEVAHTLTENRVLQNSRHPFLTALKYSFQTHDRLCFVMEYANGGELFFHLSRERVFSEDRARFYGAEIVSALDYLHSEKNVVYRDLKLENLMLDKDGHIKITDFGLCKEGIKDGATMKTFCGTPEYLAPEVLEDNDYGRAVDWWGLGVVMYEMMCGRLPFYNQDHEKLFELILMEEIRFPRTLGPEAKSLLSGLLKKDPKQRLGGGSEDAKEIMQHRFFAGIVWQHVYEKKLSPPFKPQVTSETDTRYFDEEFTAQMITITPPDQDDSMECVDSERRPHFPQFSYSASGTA

Activity [1]: 113% | Activity [2]: 108% | Activity [3]: 63%
SMILES: O=C1NC(=S)S/C1=C\c1csc(-c2ccc(C(F)(F)F)cc2)n1
Activity [4]: 102%
